Results from PubChem BioAssay AID330 (DTP/NCI, 2004).
Several values for one entry are separate records, joined by “and”; a condition that tells them apart may be missing. Equal values may be shown once. Toxic doses and inconclusive results are not listed. How the source made its calls: active means survival T/C of 150% or more; inactive means T/C below 125% in these data.

Test system: P388 leukemia ip, CD2F1 mice, survival T/C
Experiment: NCI In Vivo Anticancer Drug Screen. Data for tumor model P388 Leukemia (intraperitoneal) in CD2F1 (CDF1) mice
Conditions: endpoint: median survival time, higher = longer survival
In short: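 Mice carrying the transplanted tumor received test compound or vehicle. Survival was recorded in each group, and the value is the treated-group measurement divided by that of the vehicle-treated control group.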

[1] = dose: 50.0 mg/kg/injection, schedule: Q01DX005 (ip), vehicle: saline with Tween-80
[2] = dose: 100.0 mg/kg/injection, schedule: Q01DX005 (ip), vehicle: saline with Tween-80
[3] = dose: 200.0 mg/kg/injection, schedule: Q01DX005 (ip), vehicle: saline with Tween-80
[4] = dose: 50.0 mg/kg/injection, schedule: Q01DX009 (ip), vehicle: saline with Tween-80
[5] = dose: 100.0 mg/kg/injection, schedule: Q01DX009 (ip), vehicle: saline with Tween-80
[6] = dose: 50.0 mg/kg/injection, schedule: Q01DX005 (ip), vehicle: Klucel (hydroxypropylcellulose) (HPC)
[7] = dose: 100.0 mg/kg/injection, schedule: Q01DX005 (ip), vehicle: Klucel (hydroxypropylcellulose) (HPC)
[8] = dose: 60.0 mg/kg/injection, schedule: Q01DX005 (ip), vehicle: Klucel (hydroxypropylcellulose) (HPC)
[9] = dose: 120.0 mg/kg/injection, schedule: Q01DX005 (ip), vehicle: Klucel (hydroxypropylcellulose) (HPC)
[10] = dose: 240.0 mg/kg/injection, schedule: Q01DX005 (ip), vehicle: Klucel (hydroxypropylcellulose) (HPC)
[11] = dose: 6.25 mg/kg/injection, schedule: Q01DX005 (ip), vehicle: saline with Tween-80
[12] = dose: 12.5 mg/kg/injection, schedule: Q01DX005 (ip), vehicle: saline with Tween-80
[13] = dose: 60.0 mg/kg/injection, schedule: Q01DX005 (ip), vehicle: saline with Tween-80
[14] = dose: 240.0 mg/kg/injection, schedule: Q01DX005 (ip), vehicle: saline with Tween-80

Measured: T/C

CN1CCC(=C2c3ccccc3CC(O)c3sccc32)CC1 (stereo unspecified)
inactive: dose: 100.0 mg/kg/injection, schedule: Q04DX003 (ip), vehicle: saline with Tween-80 94 % of control | dose: 200.0 mg/kg/injection, schedule: Q04DX003 (ip), vehicle: saline with Tween-80 98 % of control

CCn1cc(C(=O)O)c(=O)c2ccc(C)[n+](C)c21
inactive: dose: 100.0 mg/kg/injection, schedule: Q04DX002 (ip), vehicle: saline 99 % of control | dose: 200.0 mg/kg/injection, schedule: Q04DX002 (ip), vehicle: saline 100 % of control | dose: 400.0 mg/kg/injection, schedule: Q04DX002 (ip), vehicle: saline 98 % of control

CC1N(C)c2cc([N+](=O)[O-])ccc2C1(C)C (stereo unspecified)
inactive: [1] 95 % of control | [2] 100 % of control | [3] 87 % of control

Oc1ccc2ccccc2c1/C=N\Sc1ccccc1
inactive: [4] 98 % of control | [5] 98 % of control

O=C(Nc1ccc(Cl)cc1)c1cc2c(cc1O)[nH]c1ccccc12
inactive: [1] 92 % of control | [2] 96 % of control | [3] 98 % of control

CCOC(=O)c1c[nH]c2ccc3[nH]cnc3c2c1=O
inactive: [6] 95 % of control | [7] 99 % of control | dose: 200.0 mg/kg/injection, schedule: Q01DX005 (ip), vehicle: Klucel (hydroxypropylcellulose) (HPC) 95 % of control

[N-]=[N+]=NCN1C(=O)C2C3C=CC(C2C1=O)C1C2C(=O)N(CN=[N+]=[N-])C(=O)C2C31 (stereo unspecified)
inactive: dose: 25.0 mg/kg/injection, schedule: Q01DX009 (ip), vehicle: saline with Tween-80 106 % of control | [4] 108 % of control | [5] 100 % of control | dose: 200.0 mg/kg/injection, schedule: Q01DX009 (ip), vehicle: saline with Tween-80 115 % of control

C=C1C(=O)OC2CCC3OC(C)(C)OC3C12 (stereo unspecified)
inactive: dose: 12.5 mg/kg/injection, schedule: Q01DX009 (ip), vehicle: DMSO 95 % of control | dose: 25.0 mg/kg/injection, schedule: Q01DX009 (ip), vehicle: DMSO 122 % of control | dose: 50.0 mg/kg/injection, schedule: Q01DX009 (ip), vehicle: DMSO 101 % of control | dose: 100.0 mg/kg/injection, schedule: Q01DX009 (ip), vehicle: DMSO 110 % of control | dose: 200.0 mg/kg/injection, schedule: Q01DX009 (ip), vehicle: DMSO 113 % of control

COc1ccc(-c2c(C)oc(C)c2C(C)=O)cc1OC
inactive: [8] 98 % of control | [9] 102 % of control | [10] 101 % of control

COC(=O)C1(CC(=O)/C=C/c2ccccc2)NC(=S)NC(=O)C1C#N (stereo unspecified)
inactive: dose: 30.0 mg/kg/injection, schedule: Q01DX005 (ip), vehicle: Klucel (hydroxypropylcellulose) (HPC) 102 % of control | [8] 91 % of control and 92 % of control | [10] 92 % of control

O=S(=O)(Nc1ccc(CCc2ccc(NS(=O)(=O)c3ccccc3)cc2)cc1)c1ccccc1
inactive: dose: 100.0 mg/kg/injection, schedule: Q01DX001 (ip), vehicle: saline with Tween-80 95 % of control | dose: 200.0 mg/kg/injection, schedule: Q01DX001 (ip), vehicle: saline with Tween-80 91 % of control | dose: 400.0 mg/kg/injection, schedule: Q01DX001 (ip), vehicle: saline with Tween-80 91 % of control

CCc1nc(N)nc(N)c1-c1ccc(NC)c(N)c1
inactive: dose: 100.0 mg/kg/injection, schedule: Q04DX002 (ip), vehicle: Klucel (hydroxypropylcellulose) (HPC) 96 % of control | dose: 200.0 mg/kg/injection, schedule: Q04DX002 (ip), vehicle: Klucel (hydroxypropylcellulose) (HPC) 105 % of control

O=C(Cc1nc2ccccc2nc1CC(=O)c1ccncc1)c1ccncc1
inactive: [11] 102 % of control | [12] 90 % of control | [13] 93 % of control | [14] 98 % of control

CC(=O)OC1C(=O)C(C)(C)CN(C(C)(C)C)CC1(C)C (stereo unspecified)
inactive: dose: 50.0 mg/kg/injection, schedule: Q01DX001 (ip), vehicle: saline sonified 100 % of control | dose: 100.0 mg/kg/injection, schedule: Q01DX001 (ip), vehicle: saline sonified 104 % of control | dose: 200.0 mg/kg/injection, schedule: Q01DX001 (ip), vehicle: saline sonified 95 % of control

COc1ccc(/C=C/C(C)=N/NC(N)=O)cc1OC
inactive: [1] 102 % of control | [2] 102 % of control | [3] 106 % of control

CCOC(=Nc1ccc2ccccc2c1)SC(c1ccccc1)(c1ccccc1)c1ccccc1
inactive: [1] 107 % of control | [2] 95 % of control | [3] 87 % of control

Cc1cccc(C)c1-n1c(C)nc2c(c(C)c(C)n2-c2ccccc2)c1=N
inactive: [6] 101 % of control | [7] 94 % of control

O=c1cc(-c2ccccc2)c2cc3c(cc2[nH]1)oc1ccccc13
inactive: [13] 93 % of control | dose: 120.0 mg/kg/injection, schedule: Q01DX005 (ip), vehicle: saline with Tween-80 98 % of control | [14] 100 % of control

O=C1C=CC(Nc2cccc([N+](=O)[O-])c2)C1Nc1cccc([N+](=O)[O-])c1 (stereo unspecified)
inactive: dose: 7.5 mg/kg/injection, schedule: Q01DX005 (ip), vehicle: saline with Tween-80 102 % of control | dose: 15.0 mg/kg/injection, schedule: Q01DX005 (ip), vehicle: saline with Tween-80 90 % of control | dose: 30.0 mg/kg/injection, schedule: Q01DX005 (ip), vehicle: saline with Tween-80 91 % of control | [14] 88 % of control and 92 % of control

Cc1ccc(NCCN2CCCCC2)c2c(=O)c3ccc(Cl)cc3sc12
inactive: [8] 94 % of control | [9] 86 % of control | [10] 97 % of control

Cc1cccc(Cl)c1NC1=NCCO1
inactive: dose: 6.25 mg/kg/injection, schedule: Q04DX003 (ip), vehicle: saline with Tween-80 95 % of control | dose: 12.5 mg/kg/injection, schedule: Q04DX003 (ip), vehicle: saline with Tween-80 95 % of control | dose: 25.0 mg/kg/injection, schedule: Q04DX003 (ip), vehicle: saline with Tween-80 100 % of control

O=P(C(=S)NC1CC2C=CC1C2)(c1ccccc1)c1ccccc1 (stereo unspecified)
inactive: dose: 25.0 mg/kg/injection, schedule: Q01DX009 (ip), vehicle: Klucel (hydroxypropylcellulose) (HPC) 95 % of control | dose: 50.0 mg/kg/injection, schedule: Q01DX009 (ip), vehicle: Klucel (hydroxypropylcellulose) (HPC) 100 % of control and 88 % of control | dose: 100.0 mg/kg/injection, schedule: Q01DX009 (ip), vehicle: Klucel (hydroxypropylcellulose) (HPC) 91 % of control | dose: 200.0 mg/kg/injection, schedule: Q01DX009 (ip), vehicle: Klucel (hydroxypropylcellulose) (HPC) 90 % of control

O=C(Nc1cccc(O)c1)C(Cl)=C(Cl)Cl
inactive: dose: 3.12 mg/kg/injection, schedule: Q01DX005 (ip), vehicle: DMSO 109 % of control | dose: 6.25 mg/kg/injection, schedule: Q01DX005 (ip), vehicle: DMSO 104 % of control | [11] 101 % of control | dose: 12.5 mg/kg/injection, schedule: Q01DX005 (ip), vehicle: DMSO 109 % of control | [12] 115 % of control | dose: 25.0 mg/kg/injection, schedule: Q01DX005 (ip), vehicle: DMSO 108 % of control | dose: 25.0 mg/kg/injection, schedule: Q01DX005 (ip), vehicle: saline with Tween-80 110 % of control | dose: 50.0 mg/kg/injection, schedule: Q01DX005 (ip), vehicle: DMSO 104 % of control
